According to patent US20030134884A1, “Neovascularization inhibitors” (priority 2000, published 2003):

What was measured:
[1] = system: Human Microvascular Endothelial Cells (HMVE); assay: human microvascular endothelial cell growth inhibitory assay (Alamar Blue); format: cell-based; details: 72 h, cultured 3 days, 2% bovine fetal serum, Alamar Blue fluorescence, control well = 100%, read-out: IC50 (concentration showing 50% growth inhibitory activity)
Protocol: The angiogenesis inhibitory action of compound (II) and an insulin sensitizer other than compound (II) was determined by a human microvascular endothelial cell growth inhibitory assay method. Human microvascular endothelial cells [Human Microvascular Endothelial Cells (HMVE), (produced by KURABO INDUSTRIES LTD., Japan)] (2×10^4/ml medium, 0.1 ml/well) in MCDB107 medium (GIBCO, US) containing 2% bovine fetal serum was dispensed to a 96 well collagen-coated microplate (produced by SUMITOMO BAKELITE CO., LTD., Japan) and a dimethylformamide (DMF) solution containing various test compounds was diluted and added to the test group. The cells were cultured at 37° C. in 5% CO2 for 3 days. Alamar Blue was added to each well and reacted at 37° C. for 4 hr. Using a fluorometer (Fluoroskan Ascent, produced by LabSystems, US), the fluorescence intensity was measured and the cell count of the well was compared with that of control. Taking the cell count of the control well as 100%, the concentration (IC50) showing 50% growth inhibitory activity was calcualted.

SMILES	IC50 [1] [µM]	melting point [°C]
Cc1oc(-c2ccccc2)nc1COc1ccc(CO/N=C(\CCC(=O)O)c2ccccc2)cc1 [compound (7), E-4-[4-(5-methyl-2-phenyl-4-oxazolylmethoxy)benzyloxyimino]-4-phenylbutyric acid]	23	
Cc1c(C)c2c(c(C)c1O)CCC(C)(COc1ccc(CC3SC(=O)NC3=O)cc1)O2 (stereo not shown) [compound (B), 5[[4-[(3,4-dihydro-6-hydroxy-2,5,7,8-tetramethyl-2H-1-benzopyran-2-yl)methoxy]phenyl]methyl]-2,4-thiazolidinedione]	107	
Cc1sc(-c2ccccc2)nc1COc1ccc(CCC[C@H]2OC(=O)NC2=O)cc1 [compound (D), (R)-(+)-5-[3-[4-[(5-methyl-2-phenyl-4-thiazolyl)methoxy]phenyl]propyl]-2,4-oxazolidinedione]	496	130 to 131
